Values of other authors in patent US8618345B2 (priority 2006, dated 2013).

Legend:
[1] = in vivo
[2] = ratio to inorganic arsenic (arsenic trioxide)

Compound	demethylation if accumulated in the body [1]	half life of a substance in the body (BHT) [1] [h]	toxicity compared with that of inorganic arsenic (arsenic trioxide) [2]
C[As+](C)(C)CC(=O)[O-] [arsenobetaine]	no demethylation	3.5	approximately 1/300
arsenic trioxide [inorganic arsenic, reference compound]		28	
